# Measurements: patent publication US5629347A, “Aromatic compounds, pharmaceutical compositions containing them and their use in therapy” (Merck Sharp & Dohme Ltd., priority 1991, dated 1997)
# Structures can show the parent of a compound that is named as a salt.
# Target: human NK1R (Homo sapiens, UniProt P25103)
# Test: biochemical
# Assay type: binding
# Settings: displacement of 125I-substance P; human NK1R in COS or CHO cells
# Procedure: To express the cloned human neurokinin-1-receotor (NK1R) transiently in COS, the cDNA for the human NK1R was cloned into the expression vector pCDM9 which was derived from pCDM8 (INVITROGEN) by inserting the ampicillin resistance gene (nucleotide 1973 to 2964 from BLUESCRIPT SK+ (trademark, […], La Jolla, Calif., U.S.A.)) into the Sac II site. Transfection of 20 ug of the plasmid DNA into 10 million COS cells was achieved by electroporation in 800 μl of transfection buffer (135 mM NaCl, 1.2 mM CaCl2, 1.2 mM MgCl2, 2.4 mM K2 HPO4, 0.6 mM KH2 PO4, 10 mM glucose, 10 mM N-2-hydroxyethyl-piperazine-N'-2-ethane sulphonic acid (HEPES) pH 7.4) at 260 V and 950 μF using the IBI GENEZAPPER (trademark IBI, New Haven, Conn., U.S.A.). The cells were incubated in 10% fetal calf serum, 2 mM glutamine, 100 U/ml penicillin-streptomycin, and 90% DMEM media (GIBCO, Grand Island, N.Y., U.S.A.) in 5% CO2 at 37° C. for three days before the binding assay.
# To establish a stable cell line expressing cloned human NK1R, the cDNA was subcloned into the vector pRcCMV (INVITROGEN). Transfection of 20 ug of the plasmid DNA into CHO cells was achieved by electroporation in 800 μl of transfection buffer supplemented with 0.625 mg/ml Herring sperm DNA at 300 V and 950 μF using the IBI GENEZAPPER (IBI). The transfected cells were incubated. in CHO media [10% fetal calf serum, 100 U/ml penicillin-streptomycin, 2 mM glutamine, 1/500 hypoxanthinethymidine (ATCC), 90% IMDM media (JRH BIOSCIENCES, Lenexa, Kans., U.S.A.), 0.7 mg/ml G418 (GIBCO)] in 5% CO2 at 37° C. until colonies were visible. Each colony was separated and propagated. The cell clone with the highest number of human NK1R was selected for subsequent applications such as drug screening.
# The binding assay of human NK1R expressed in either COS or CHO cells is based on the use of ^125 I-substance P (^125 I-SP, from DU PONT, Boston, Mass.) as a radioactively labeled ligand which competes with unlabeled substance P or any other ligand for binding to the human NK1R. […] The tubes were incubated at 4° C. or at room temperature for 1 hour with gentle shaking. The bound radioactivity was separated from unbound radioactivity by GF/C filter (BRANDEL, Gaithersburg, Md.) which was prewetted with 0.1% polyethylenimine. The filter was washed with 3 ml of wash buffer (50 mM Tris pH 7.5, 5 mM MnCl2, 150 mM NaCl) three times and its radioactivity was determined by gamma counter.
# Sequence of human NK1R (P25103 whole entry): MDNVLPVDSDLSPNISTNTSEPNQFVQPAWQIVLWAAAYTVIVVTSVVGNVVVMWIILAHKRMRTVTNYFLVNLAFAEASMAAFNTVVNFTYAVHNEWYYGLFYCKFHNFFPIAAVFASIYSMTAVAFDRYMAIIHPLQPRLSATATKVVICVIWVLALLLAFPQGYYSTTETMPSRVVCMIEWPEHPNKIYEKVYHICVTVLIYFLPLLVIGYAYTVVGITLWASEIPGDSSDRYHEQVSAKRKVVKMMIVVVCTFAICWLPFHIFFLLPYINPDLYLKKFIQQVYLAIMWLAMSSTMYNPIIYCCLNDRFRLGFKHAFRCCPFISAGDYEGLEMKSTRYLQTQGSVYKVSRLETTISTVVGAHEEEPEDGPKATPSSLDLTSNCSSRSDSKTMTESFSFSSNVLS
row,IC50 [nM],SMILES
1,400,"NC(COCc1cccc([N+](=O)[O-])c1)C(c1ccccc1)c1ccccc1 (stereo not shown) [Example 24, 2-Ammonium-1-((3-nitrophenyl)methyloxy)-3,3-diphenylpropane oxalate salt]"
2,80,O=C(CCl)NC(COCc1cc(C(F)(F)F)cc(C(F)(F)F)c1)C(c1ccccc1)c1ccccc1 (stereo not shown) [Example 60]
3,1,"CN(C)CCNC(=O)CNC(COCc1cc(C(F)(F)F)cc(C(F)(F)F)c1)C(c1ccccc1)c1ccccc1 (stereo not shown) [Example 52, N-(1-((3',5'-Bis(trifluoromethyl)phenyl)methyloxy)-3,3-diphenylprop-2-yl)glycine N',N'-dimethylethylamide bis oxalate salt]"
4,30,"NCC(=O)NC(COCc1cc(C(F)(F)F)cc(C(F)(F)F)c1)C(c1ccccc1)c1ccccc1 (stereo not shown) [Example 61, 2-(2-Ammoniumacetamido)-1-((3,5-bis(trifluoromethyl)phenyl)methyloxy)-3,3-diphenylpropane oxalate salt hemihydrate]"
